From publication PMC10206040, “Identification of novel anti-amoebic pharmacophores from kinase inhibitor chemotypes” (Frontiers in Microbiology, 2023) come the findings set out here.

Molecules are shown by their SMILES. Where two headings read alike, the source gives them in different places.

For data set [1], the system named is Acanthamoeba castellanii T4 isolate (ATCC 50370) trophozoites. The experiment in a line: CellTiter-Glo 2.0 trophocidal assay, A. castellanii. It counts as cell-based. Particulars: read-out: Acanthamoeba castellanii EC50 ± SD. From the text:
This isolate was purchased from American Type Culture Collection (ATCC). […] For sub-culturing, cells were mechanically harvested to detach the cells from the culture flasks.
A general note: Cellular ATP, detected with luciferase, serves as a proxy for viable cell number.

Data set [2] relates to Naegleria fowleri (ATCC 30215) trophozoites. Briefly: microbe, parasite or virus in culture. The following applies: Naegleria fowleri, read-out: Naegleria fowleri EC50 ± SD, logarithmic trophozoites, 72 h, n = 3 (converted). As to the method:
Trophozoites were routinely grown axenically at 34°C, 5% CO2, in Nelson’s complete medium (NCM) in non-vented 75 cm^2 tissue culture flasks (Olympus), until the cells were 80–90% confluent. For sub-culturing, cells were placed on ice to detach the cells from the culture flasks. […] Complete NCM media is prepared by the addition of 10% fetal bovine serum (FBS) and 100 U/mL penicillin, and 100 μg/mL streptomycin antibiotics.
Trophozoites were routinely cultured as described above and only logarithmic trophozoites were used.
All assays were incubated at each of the parasites’ representative growth temperatures, described above, for 72 h. At the 72-h time point, 25 μL of CellTiter-Glo 2.0 reagent was added to all wells of the 96-well plates by hand. The plates were protected from light and contents were mixed using an orbital shaker at 300 rpm at room temperature for 2 min to induce cell lysis. After shaking, the plates were equilibrated at room temperature for 10 min to stabilize the luminescent signal. The ATP luminescent signal (relative light units; RLUs) were measured […] with a SpectraMax I3X plate reader (Molecular Devices, Sunnyvale, CA, United States). […] Values reported are from a minimum of three biological replicates with standard deviation.

Data set [3] deals with Balamuthia mandrillaris (CDC:V039; ATCC 50209) trophozoites. Briefly: CellTiter-Glo 2.0 trophocidal assay, B. mandrillaris. In kind it is cell-based. The following applies: Balamuthia mandrillaris, ATCC50209, 72 h. The text has this:
For sub-culturing, 0.25% Trypsin–EDTA (Gibco) cell detachment reagent was used to detach the cells from the culture flasks.

Data set [4] can be described thus: Human fetal lung fibroblast (MRC5) cell cytotoxicity assay (resazurin). The following applies: human, MRC5 cells (human fetal lung fibroblasts). The protocol:
(§1) Intermediate plates were made as described, adding 95 μL of DMEM complete media to 5 μL of compound per well setting a 5% DMSO amount. Log-phase MRC5 cells were removed from a T-75 TC flask using TrypLE® Express (Thermo®) and dispersed by gentle pipetting. Cell density was adjusted to working concentration in prewarmed DMEM medium: 25,000 cells in 90 μL of culture were plated in 96-well transparent Nunclon plates and allowed to settle for 24 h at 37°C and 5% CO2. […] Plates were incubated for 48 h at 37°C and 5% CO2. At 4 h prior to fluorescence measurement, 20 μL of 500 μM resazurin solution was added.
(§2) A four-parameter equation was used to fit the dose–response curves and determination of EC50 by SigmaPlot ® 13.0 software. Assays were performed in duplicate at least twice for positive compounds, to achieve a minimal […] per dose response.
(Alamar Blue is a resazurin reagent that responds to reducing activity.)

For a further data set, the system named is MRC5 cells. The data set is described as above. Particulars: Table S2. As to the method: as §1, §2
The mark [5] stands for this setting: Acanthamoeba castellanii, ATCC50370, 72 h, logarithmic trophozoites, 72 h, n = 3.
[6] abbreviates: logarithmic trophozoites, 72 h, n = 3, read-out: Balamuthia mandrillaris EC50 ± SD.
Setting [7] is: Acanthamoeba castellanii, ATCC50370, 72 h.
Where [8] appears, read: read-out: Balamuthia mandrillaris EC50 ± SD.
The mark [9] stands for this setting: read-out: Balamuthia mandrillaris EC50 ± SD, logarithmic trophozoites, 72 h, n = 3 (converted).

Turning to `CC[C@H]1OC(=O)[C@H](C)[C@@H](O[C@H]2C[C@@](C)(OC)[C@@H](O)[C@H](C)O2)[C@H](C)[C@@H](O[C@@H]2O[C@H](C)C[C@H](N(C)C)[C@H]2O)[C@](C)(O)C[C@@H](C)CN(C)[C@H](C)[C@@H](O)[C@]1(C)O` [Azithromycin, reference compound], the EC50 in data set [1] (setting [5]) is 0.26 ± 0.14 µM; in data set [2] (ATCC30215, 72 h) it was 0.02 ± 0.01 µM; in data set [3] (setting [6]) it was above 20 µM.

Turning to `[H]/N=C(\N/C(=N/[H])NCCCCCCNC(=N)NC(=N)Nc1ccc(Cl)cc1)Nc1ccc(Cl)cc1` [Chlorhexidine, reference compound], the 50% effective concentration (EC50) in data set [1] (setting [5]) is 11 ± 3.5 µM; in data set [2] (ATCC30215, 72 h) it was 5.8 ± 0.22 µM; in data set [3] (setting [6]), 1.6 ± 0.17 µM.

Turning to `COc1ccc(-c2nn3ncccc3c2-c2ccnc(Nc3ccccc3)n2)cc1` [Compound 2i], the CC50 at 48 h in data set [4] is above 50 µM. Moreover, the EC50 in data set [2] (72 h) is 17 ± 3.5 µM.

Consider `Nc1c(-c2ccccn2)nc2cc(F)ccn12` [Compound 3a, 7-Fluoro-2-(pyridin-2-yl)imidazo[1,2-a]pyridin-3-amine], for which the MRC5 TC50 ± Standard Deviation with MRC5 cells was 64 µM. Also, the concentration giving a half-maximal response (EC50) was below 10 µM in data set [1] (setting [5]); 6.94 ± 0.11 µM in data set [1] (logarithmic trophozoites, 72 h, n = 3); 15 ± 4.7 µM in data set [2] (ATCC30215, 72 h).

As for `COc1ccn2c(Nc3ccccc3F)c(-c3cnn(C)c3)nc2c1` [Compound 3b, N-(2-Fluorophenyl)-7-methoxy-2-(1-methyl-1H-pyrazol-4-yl)imidazo[1,2-a]pyridin-3-amine], the MRC5 TC50 ± Standard Deviation in the data set with MRC5 cells worked out at 64 µM. For the same molecule, the EC50 in data set [2] (ATCC30215, 72 h) is 13 ± 6.7 µM.

In turn, `COc1ccn2c(Nc3ccccc3F)c(-c3cccc(C)n3)nc2c1` [Compound 3c, N-(2-Fluorophenyl)-7-methoxy-2-(6-methylpyridin-2-yl)imidazo[1,2-a]pyridin-3-amine] gave an MRC5 TC50 ± Standard Deviation in the data set on MRC5 cells of 64 µM. Moreover, the 50% effective concentration (EC50) in data set [1] (setting [5]) is above 20 µM; in data set [2] (ATCC30215, 72 h), above 20 µM.

`Fc1ccn2c(NC3CC3)c(-c3ccccn3)nc2c1` [Compound 3d, N-Cyclopropyl-7-fluoro-2-(pyridin-2-yl)imidazo[1,2-a]pyridin-3-amine]: the MRC5 TC50 ± Standard Deviation with MRC5 cells came to 64 µM. The EC50 in data set [1] (setting [5]) is above 20 µM; in data set [2] (ATCC30215, 72 h), above 20 µM.

Regarding `CC(C)Nc1c(-c2ccccn2)nc2cc(C(F)(F)F)ccn12` [Compound 3f, N-(Propan-2-yl)-2-(pyridin-2-yl)-7-(trifluoromethyl)imidazo[1,2-a]pyridin-3-amine], the MRC5 TC50 ± Standard Deviation in the data set with MRC5 cells came out at 53 µM. Further, the EC50 in data set [2] (ATCC30215, 72 h) was above 20 µM.

Regarding `COc1ccn2c(Nc3ccccc3F)c(-c3cccnc3)nc2c1` [Compound 3g, N-(2-fluorophenyl)-7-methoxy-2-(pyridin-3-yl)imidazo[1,2-a]pyridin-3-amine], in the data set with MRC5 cells, the MRC5 TC50 ± Standard Deviation stood at 64 µM. The concentration giving a half-maximal response (EC50) in data set [2] (ATCC30215, 72 h) is above 20 µM.

The molecule `COc1ccn2c(NC(=O)c3ccccc3F)c(-c3ccccn3)nc2c1` [Compound 3h, 2-Fluoro-N-[7-methoxy-2-(pyridin-2-yl)imidazo[1,2-a]pyridin-3-yl]benzamide] gave an MRC5 TC50 ± Standard Deviation with MRC5 cells of 64 µM. Further, the concentration giving a half-maximal response (EC50) in data set [2] (ATCC30215, 72 h) is above 20 µM.

In the data set on MRC5 cells, `COc1ccn2c(Nc3ccccc3F)c(-c3ncccn3)nc2c1` [Compound 3i, N-(2-Fluorophenyl)-7-methoxy-2-(pyrimidin-2-yl)imidazo[1,2-a]pyridin-3-amine] came in with an MRC5 TC50 ± Standard Deviation of 49 µM. Besides, the EC50 in data set [2] (ATCC30215, 72 h) is above 20 µM.

In the case of `COc1ccn2c(Nc3ccccc3F)c(-c3ccncn3)nc2c1` [Compound 3j], the MRC5 TC50 ± Standard Deviation with MRC5 cells is 46 µM. The concentration for a half-maximal effect (EC50) in data set [2] (ATCC30215, 72 h) was above 20 µM.

The molecule `COc1ccn2c(NC(=O)c3ccc(F)cn3)c(-c3ccccn3)nc2c1` [Compound 3k, 5-Fluoro-N-[7-methoxy-2-(pyridin-2-yl)imidazo[1,2-a]pyridin-3-yl]pyridine-2-carboxamide] gave an MRC5 TC50 ± Standard Deviation in the data set on MRC5 cells of 64 µM. In addition, in data set [2] (ATCC30215, 72 h), the concentration giving a half-maximal response (EC50) was above 20 µM.

As for `COc1ccn2c(NC(=O)c3cccc(F)c3)c(-c3ccccn3)nc2c1` [Compound 3l, 3-Fluoro-N-[7-methoxy-2-(pyridin-2-yl)imidazo[1,2-a]pyridin-3-yl]benzamide], in the data set with MRC5 cells, the MRC5 TC50 ± Standard Deviation was determined as 59 µM. Besides, the 50% effective concentration (EC50) in data set [2] (ATCC30215, 72 h) was above 20 µM.

With `c1cnc(Nc2ccnc3cc(C4CCCNC4)ccc23)cn1` (stereo not shown) [Compound S18, 7-(Piperidin-3-yl)-N-(pyrazin-2-yl)quinolin-4-amine], the EC50 was above 20 µM in data set [1] (setting [5]); above 20 µM in data set [2] (ATCC30215, 72 h); above 20 µM in data set [3] (setting [6]).

Consider `c1nc2c(N3CCOCC3)nc(Nc3ccsc3)nc2[nH]1` [Compound S25], for which the concentration for a half-maximal effect (EC50) in data set [1] (setting [5]), in data set [2] (72 h) and in data set [3] (setting [6]) was above 20 µM each time.

Consider `CC(C)(C)c1ccc(Nc2nccc(-c3c(-c4ccc(C(F)(F)F)cc4)nn4ncccc34)n2)cc1` [Compound S26], for which the EC50 in data set [1] (setting [7]), in data set [2] (72 h) and in data set [3] (setting [8]) was above 20 µM in each case.

Turning to `CC(C)(O)c1nn2ncccc2c1-c1ccnc(Nc2ccc(C(N)=O)cc2)n1` [Compound S27], the EC50 in data set [1] (setting [7]), in data set [2] (72 h) and in data set [3] (setting [8]) was above 20 µM in each case.

For the molecule `c1cnn2ncc(-c3ccncc3)c2c1` [Compound S28], the EC50 in data set [1] (setting [7]), in data set [2] (72 h) and in data set [3] (setting [8]) was above 20 µM in each case.

For the molecule `N#Cc1cccc(Nc2nccc(-c3c(CO)nn4nc(N5CCOCC5)ccc34)n2)c1` [Compound S29], the concentration giving a half-maximal response (EC50) in data set [1] (setting [7]), in data set [2] (72 h) and in data set [3] (setting [8]) was above 20 µM throughout.

On to `CN1CCCN(c2ncc(-c3ccc4c(Nc5cnccn5)ccnc4c3)cn2)CC1` [Compound S33], for which the EC50 in data set [1] (setting [5]), in data set [2] (72 h) and in data set [3] (setting [6]) was above 20 µM in each case.

Regarding `CN1C[C@@H]2C[C@H]1CN2c1ncc(-c2ccc3c(Nc4cnccn4)ccnc3c2)cn1` [Compound S34], the half-maximal effective concentration (EC50) in data set [1] (setting [5]), in data set [2] (72 h) and in data set [3] (setting [6]) was above 20 µM each time.

In the case of `CN1CCC2(CC1)CCN(c1ncc(-c3ccc4c(Nc5cnccn5)ccnc4c3)cn1)CC2` [Compound S35], the EC50 in data set [1] (setting [5]), in data set [2] (72 h) and in data set [3] (setting [6]) was above 20 µM throughout.

Consider `CN1C[C@H]2C[C@@H]1CN2c1ncc(-c2ccc3c(Nc4cnccn4)ccnc3c2)cn1` [Compound S36], for which the EC50 in data set [1] (setting [5]), in data set [2] (72 h) and in data set [3] (setting [6]) was above 20 µM in each case.

In the case of `CC(=O)c1ccc2c(c1)c1cc(C(C)=O)ccc1n2-c1ccc(N(C)C)cc1` [Compound S37], the 50% effective concentration (EC50) in data set [1] (setting [5]), in data set [2] (72 h) and in data set [3] (setting [6]) was above 20 µM throughout.

With `CC(=O)c1ccc2c(c1)c1cc(C(C)=O)ccc1n2CCN1CCNCC1` [Compound S38], the EC50 in data set [1] (setting [7]), in data set [2] (72 h) and in data set [3] (setting [9]) was above 20 µM throughout.

Consider `CC(=O)c1ccc2c(c1)c1cc(C(C)=O)ccc1n2CCOC(C)C` [Compound S40], for which the EC50 in data set [1] (setting [7]) and in data set [3] (setting [9]) was above 20 µM in each case.

Turning to `CC(=O)c1ccc2c(c1)c1cc(C(C)=O)ccc1n2CCN1CC(N(C)C)C1` [Compound S41], the 50% effective concentration (EC50) in data set [1] (setting [7]) and in data set [3] (setting [9]) was above 20 µM throughout.

Turning to `CC(=O)c1ccc2c(c1)c1cc(C(C)=O)ccc1n2CCNCCN(C)C` [Compound S42], the EC50 in data set [1] (setting [7]) and in data set [3] (setting [9]) was above 20 µM throughout.

`CC(=O)c1ccc2c(c1)c1cc(C(C)=O)ccc1n2CCn1ccnc1` [Compound S43]: the concentration giving a half-maximal response (EC50) in data set [1] (setting [7]), in data set [2] (72 h) and in data set [3] (setting [9]) was above 20 µM in each case.

In the case of `N=C(N)c1ccc(OCCCCCOc2ccc(C(=N)N)cc2)cc1` [Pentamidine, reference compound], the EC50 in data set [1] (setting [5]) was 4.2 ± 0.08 µM; in data set [2] (ATCC30215, 72 h), above 50 µM; in data set [3] (setting [6]), 18.4 ± 1.47 µM.

In general, EC50 refers to the concentration giving half of the maximal effect. As a reminder, the CC50 is the concentration that lowers cell viability or growth by half. A high value points to lower toxicity to the cells.
